Experimental data taken from patent US9885086B2, “Phospholipase C gamma 2 and resistance associated mutations” (Pharmacyclics LLC, priority 2014, dated 2018).

Test system: DT40 cells stably expressing mutated PLCγ2 (L845F)
Test: Calcium flux assay in DT40 cells after anti-IgM stimulation
Format: cell-based, chicken
Details: L845F PLCγ2 mutant DT40 cells, 1 μM Ibrutinib 30 min
Description: The intracellular calcium level was detected by Calcium Assay Kit (BD Biosciences, San Diego, Calif.) and measured by Beckman Coulter DTX880 microplate reader. After 195 seconds of acquisition to determine the baseline, 3 μg/ml anti-chicken IgM (SouthernBiotech, Birmingham, Ala.) was added to stimulate the cells.
WT PLCγ2 and L845F PLCγ2 were stably transfected into 293 cells and DT40 cells which lack endogenous PLCγ2 expression (FIG. 5). Calcium flux was examined in DT40 cells after anti-IgM stimulation in the presence of WT or mutant PLCγ2.

How did the “inhibition of IgM-mediated calcium flux” value turn out when `C=CC(=O)N1CCC[C@@H](n2nc(-c3ccc(Oc4ccccc4)cc3)c3c(N)ncnc32)C1` [ibrutinib] was run?
Its value is “not inhibited”.
